Measurements from patent US20260078114A1, “COMPOUND USED AS INHIBITOR OF CDK4 KINASE AND USE THEREOF” (TYK MEDICINES, INC., priority 2022, published 2026).

Assays:
CDK6/CyclinD3 = CDK6/CyclinD3 (Homo sapiens, UniProt Q00534); assay: Kinase activity test (mobility shift assay, EZ Reader), CDK6; assay type: biochemical; conditions: CDK6/CyclinD3 5.00 nM, ATP 350 μM, FL-Peptide34
CDK4/CycD1 = CDK4/CycD1 (Homo sapiens, UniProt P11802); assay: Kinase activity test (mobility shift assay, EZ Reader), CDK4
Sequence of CDK4/CycD1 (P11802 whole entry, species assumed): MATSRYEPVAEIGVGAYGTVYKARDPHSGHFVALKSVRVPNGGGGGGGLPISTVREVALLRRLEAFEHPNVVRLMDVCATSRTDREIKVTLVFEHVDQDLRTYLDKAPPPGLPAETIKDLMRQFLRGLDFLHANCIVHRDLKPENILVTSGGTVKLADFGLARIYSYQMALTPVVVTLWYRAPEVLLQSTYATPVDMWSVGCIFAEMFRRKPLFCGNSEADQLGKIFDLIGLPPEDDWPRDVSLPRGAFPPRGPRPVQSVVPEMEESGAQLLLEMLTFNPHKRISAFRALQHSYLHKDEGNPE
Sequence of CDK4/CycD1 (P24385 whole entry partner, species assumed): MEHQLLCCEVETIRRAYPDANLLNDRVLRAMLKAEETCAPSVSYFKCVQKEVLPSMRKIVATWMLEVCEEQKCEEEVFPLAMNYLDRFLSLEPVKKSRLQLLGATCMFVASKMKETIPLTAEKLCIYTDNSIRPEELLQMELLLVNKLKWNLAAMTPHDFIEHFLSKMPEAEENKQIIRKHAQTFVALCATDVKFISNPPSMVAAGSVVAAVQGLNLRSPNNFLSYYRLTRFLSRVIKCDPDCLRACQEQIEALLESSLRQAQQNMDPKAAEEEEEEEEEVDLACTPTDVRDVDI
Experimental: The tested compounds were subjected to CDK4 and CDK6 kinase IC50 values test.
• (1) Preparing a 1.3× enzyme solution containing enzyme, substrate and cofactor as shown below. • (2) Adding 15 μL of 1.3× enzyme solution to each well and incubating for 30 min at room temperature. • (3) Starting the reaction by adding 5 μL of 4×ATP solution, with each test well containing the listed components and a final volume of 20 μL. • (4) Incubating for 150 minutes and then stopping the reaction by adding 75 μL of buffer (containing 0.5 M EDTA). • (5) Reading the data from each test well by EZ for analysis.
Percentage inhibition was calculated using the read conversion ratio (CR) according to the formula below:
The wells treated with DMSO were used as positive control (positive control) and the wells without enzyme were used as negative control (negative control).

[1] = system: Human breast cancer cell MCF-7; assay: Cellular antiproliferative assay (MTT, 5 days), MCF-7; assay type: cell-based; conditions: Homo sapiens, MCF7, 120 h, MCF-7 cells, 5 days incubation
Experimental: (§1) Human breast cancer cell MCF-7, ovarian cancer cell A2780, human mantle cell lymphoma cell JEKO-1. DMEM medium (Bio-Channel), DMSO (dimethyl sulfoxide), MTT (thiazolyl blue), 0.25% EDTA-Tripsin (tryptic digest), 1×PBS (phosphate buffer, PH7.2), 96-well plate (Corning), fetal bovine serum (FBS), 10,000 U/mL penicillin-G/streptomycin, high-speed cryo-centrifuge (EPPENDORF 5810R), enzyme-linked immunoassay (Tecan Spark).
(§2) • A) Tumor cells were cultured in DMEM (high sugar with 10% FBS and 100 U/mL penicillin-G/streptomycin) at 37° C., 5% CO2 and saturated humidity until 80-90% dense. • B) Removed the culture medium from 10 cm Petri dishes; • C) Rinsed the cells once with 10 ml 1×PBS; • D) Added 4 ml 0.25% EDTA-Tripsin into 37° C., 5% CO2 incubator for trypsin digestion for 5 minutes, transferred to 15 ml centrifuge tube, centrifuged at 200 g for 5 minutes, discarded the supernatant to get cell precipitate; • E) Resuspended with 4 ml DMEM medium, counted and adjust to 50,000 cells/ml. • F) Added cell suspension to 96-well plate with 100 μL per well volume and incubated overnight at 37° C., 5% CO2 incubator.
(§3) • A) Preparation of gradient dilution solution of the tested compound: the test compound was configured into 1 mM reservoir solution.
(§4) • A) Taking the cell culture plate and adding 10 μL of 5 mg/ml MTT in the biosafety cabinet; • B) Putting the cell culture plate back into the incubator and continued incubation for 3 hours; • C) Taking the cell culture plate and removing the culture medium, adding 100 μL isopropanol (containing 0.4 mM HCl, 0.1% NP-40), and shaking the bed at room temperature for 30 min; and • D) Determining the absorbance value by selecting 570 nm on a TECAN enzyme-linked immunoassay detector.
(§5) The % Cell Viability was calculated using the following formula:
(§6) [formula] • Lum_HC: 0.1% DMSO control cell reading • Lum_Sample: cell readings with compound added • Lum_LC: Blank medium reading

[2] = system: human mantle cell lymphoma cell JEKO-1; assay: Cellular antiproliferative assay (MTT, 5 days), JEKO-1; assay type: cell-based; conditions: Homo sapiens, 120 h, JEKO-1 cells, 5 days incubation
Experimental: as §1, §2, §3, §4, §5, §6

[3] = system: ovarian cancer cell A2780; assay: Cellular antiproliferative assay (MTT, 5 days), A2780; assay type: cell-based, human; conditions: Homo sapiens, 120 h, A2780 cells, 5 days incubation
Experimental: as §1, §2, §3, §4, §5, §6

Sequence of CDK6/CyclinD3 (Q00534 whole entry, species assumed): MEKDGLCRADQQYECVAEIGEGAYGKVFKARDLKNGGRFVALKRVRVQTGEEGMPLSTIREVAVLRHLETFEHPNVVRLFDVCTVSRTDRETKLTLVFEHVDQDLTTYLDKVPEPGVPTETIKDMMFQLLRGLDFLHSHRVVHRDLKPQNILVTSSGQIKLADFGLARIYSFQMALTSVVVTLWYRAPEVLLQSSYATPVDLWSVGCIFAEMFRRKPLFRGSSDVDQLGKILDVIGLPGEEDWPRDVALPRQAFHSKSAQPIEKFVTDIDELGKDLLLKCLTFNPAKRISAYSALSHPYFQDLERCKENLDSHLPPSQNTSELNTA
Sequence of CDK6/CyclinD3 (P30281 whole entry partner, species assumed): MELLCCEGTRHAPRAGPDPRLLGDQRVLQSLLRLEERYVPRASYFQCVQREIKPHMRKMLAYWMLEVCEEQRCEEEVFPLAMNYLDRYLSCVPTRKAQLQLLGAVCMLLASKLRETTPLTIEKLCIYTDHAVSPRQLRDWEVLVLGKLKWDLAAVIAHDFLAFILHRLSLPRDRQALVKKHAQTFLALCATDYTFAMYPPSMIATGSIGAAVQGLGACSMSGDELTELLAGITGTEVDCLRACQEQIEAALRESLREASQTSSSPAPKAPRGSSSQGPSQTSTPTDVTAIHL

Structure (SMILES) | IC50 (CDK6/CyclinD3) [nM] | IC50 (CDK4/CycD1) [nM] | IC50 [1] [nM] | IC50 [2] [nM] | IC50 [3] [nM]
COC(=O)N1CCC[C@@H](Nc2ncc(Cl)c(-c3cc(F)c4c(c3)N(C(C)C)CCO4)n2)C1 [TA-10, methyl (R)-3-((5-chloro-4-(8-fluoro-4-isopropyl-3,4-dihydro-2H-benzo[b][1,4]oxazin-6-yl)pyrimidin-2-yl)amino)piperidine-1-carboxylate] | 206 | 57.6 | – | – | –
CC(C)C(=O)N(c1cc(F)cc(-c2nc(N[C@@H]3CCOC[C@H]3O)ncc2Cl)c1)C(C)C [TA-20] | 319 | 108 | – | – | –
CC(C)c1c(C(C)(C)O)nc2c(F)cc(-c3nc(N[C@@H]4CCOC[C@H]4O)ncc3Cl)cn12 [TA-27, (3S,4R)-4-((5-chloro-4-(8-fluoro-2-(2-hydroxypropan-2-yl)-3-isopropylimidazo[1,2-a]pyridin-6-yl)pyrimidin-2-yl)amino)tetrahydro-2H-pyran-3-ol] | 203 | 21.8 | – | – | –
CN1CCCn2c1nc1c(F)cc(-c3nc(NC4CCC(F)(F)CC4)ncc3Cl)cc12 [TB-95, 5-chloro-N-(4,4-difluorocyclohexyl)-4-(9-fluoro-1-methyl-1,2,3,4-tetrahydrobenzo[4,5]imidazo[1,2-a]pyrimidin-7-yl)pyrimidin-2-amine] | > 500 | – | – | – | –
CC(C)n1c(N2CCCC2=O)nc2c(F)cc(-c3nc(N[C@@H]4CCOC[C@H]4O)ncc3Cl)cc21 [TA-54] | > 500 | – | – | – | –
CC(=O)N1CCC[C@@H](Nc2ncc(Cl)c(-c3cc(F)c4c(c3)N(C(C)C)CCO4)n2)C1 [TA-16, (R)-1-(3-((5-chloro-4-(8-fluoro-4-isopropyl-3,4-dihydro-2H-benzo[b][1,4]oxazin-6-yl)pyrimidin-2-yl)amino)piperidin-1-yl)ethan-1-one] | 99.1 | 15.3 | – | – | –
COC(=O)N1CCC(Nc2ncc(Cl)c(-c3cc(F)c4nc5n(c4c3)CCCN5C)n2)CC1 [TB-93, methyl 4-((5-chloro-4-(9-fluoro-1-methyl-1,2,3,4-tetrahydrobenzo[4,5]imidazo[1,2-a]pyrimidin-7-yl)pyrimidin-2-yl)amino)piperidine-1-carboxylate] | > 500 | – | 500 to 2000 | ≤ 500 | ≤ 500
CC(C)N1CCOc2c(F)cc(-c3nc(NC4CCOCC4)ncc3F)cc21 [TA-8, 5-fluoro-4-(8-fluoro-4-isopropyl-3,4-dihydro-2H-benzo[b][1,4]oxazin-6-yl)-N-(tetrahydro-2H-pyran-4-yl)pyrimidin-2-amine] | 67.3 | 21.4 | – | – | –
CC(C)n1c(N2CCOC2=O)nc2c(F)cc(-c3nc(N[C@@H]4CCOC[C@H]4O)ncc3Cl)cc21 [TA-55] | – | – | ≤ 500 | ≤ 500 | ≤ 500
CN1CCCn2c1nc1c(F)cc(-c3nc(Nc4ccncc4)ncc3Cl)cc12 [TB-90] | – | – | 500 to 2000 | ≤ 500 | ≤ 500
CN1CCCn2c1nc1c(F)cc(-c3nc(N[C@@H]4CCOC[C@H]4O)ncc3C(F)(F)F)cc12 [TB-41, (3S,4R)-4-((4-(9-fluoro-1-methyl-1,2,3,4-tetrahydrobenzo[4,5]imidazo[1,2-a]pyrimidin-7-yl)-5-(trifluoromethyl)pyrimidin-2-yl)amino)tetrahydro-2H-pyran-3-ol] | > 500 | – | 500 to 2000 | 500 to 2000 | 500 to 2000
CN1CCCn2c1nc1c(F)cc(-c3nc(NC4CCOCC4)ncc3Cl)cc12 [TB-132, 5-chloro-4-(9-fluoro-1-methyl-1,2,3,4-tetrahydrobenzo[4,5]imidazo[1,2-a]pyrimidin-7-yl)-N-(tetrahydro-2H-pyran-4-yl)pyrimidin-2-amine] | – | – | 500 to 2000 | ≤ 500 | ≤ 500
CC(C)n1c(N2CCOC2=O)nc2c(F)cc(-c3nc(Nc4ccc(S(=O)(=O)NCCN(C)C)cc4)ncc3Cl)cc21 [TB-38, 4-((5-chloro-4-(4-fluoro-1-isopropyl-2-(2-oxooxazolidin-3-yl)-1H-benzo[d]imidazol-6-yl)pyrimidin-2-yl)amino)-N-(2-(dimethylamino)ethyl)benzenesulfonamide] | – | – | ≤ 500 | ≤ 500 | ≤ 500
CN1CCn2c1nc1c(F)cc(-c3nc(NC4CCN(S(C)(=O)=O)CC4)ncc3Cl)cc12 [TB-52, 5-chloro-4-(8-fluoro-1-methyl-2,3-dihydro-1H-benzo[d]imidazo[1,2-a]imidazol-6-yl)-N-(1-(methylsulfonyl)piperidin-4-yl)pyrimidin-2-amine] | – | – | ≤ 500 | ≤ 500 | ≤ 500
